Test results as given in patent US9636418B2 (priority 2013, dated 2017).
Values joined by “and” are separate entries in the source; they are usually repeats but may differ in a detail not shown here. Equal values may be shown once.

Assays:
Assay in all cases: cell-based
hNav1.7 = hNav1.7 (Homo sapiens, UniProt Q15858); conditions: IonWorks Quattro; read-out: IC50 Nav1.7
hNav1.5 = hNav1.5 (Homo sapiens, UniProt Q14524); conditions: IonWorks Quattro; read-out: IC50 Nav1.5
hNav1.4 = hNav1.4 (Homo sapiens, UniProt P35499); conditions: for IC50: IonWorks Quattro, read-out: IC50 Nav1.4; for Nav1.4/Nav1.7: ratio of IonWorks Quattro IC50 values
hNav1.3 = hNav1.3 (Homo sapiens, UniProt Q9NY46); conditions: IonWorks Quattro; read-out: IC50 Nav1.3

Sequence of hNav1.5 (Q14524 whole entry): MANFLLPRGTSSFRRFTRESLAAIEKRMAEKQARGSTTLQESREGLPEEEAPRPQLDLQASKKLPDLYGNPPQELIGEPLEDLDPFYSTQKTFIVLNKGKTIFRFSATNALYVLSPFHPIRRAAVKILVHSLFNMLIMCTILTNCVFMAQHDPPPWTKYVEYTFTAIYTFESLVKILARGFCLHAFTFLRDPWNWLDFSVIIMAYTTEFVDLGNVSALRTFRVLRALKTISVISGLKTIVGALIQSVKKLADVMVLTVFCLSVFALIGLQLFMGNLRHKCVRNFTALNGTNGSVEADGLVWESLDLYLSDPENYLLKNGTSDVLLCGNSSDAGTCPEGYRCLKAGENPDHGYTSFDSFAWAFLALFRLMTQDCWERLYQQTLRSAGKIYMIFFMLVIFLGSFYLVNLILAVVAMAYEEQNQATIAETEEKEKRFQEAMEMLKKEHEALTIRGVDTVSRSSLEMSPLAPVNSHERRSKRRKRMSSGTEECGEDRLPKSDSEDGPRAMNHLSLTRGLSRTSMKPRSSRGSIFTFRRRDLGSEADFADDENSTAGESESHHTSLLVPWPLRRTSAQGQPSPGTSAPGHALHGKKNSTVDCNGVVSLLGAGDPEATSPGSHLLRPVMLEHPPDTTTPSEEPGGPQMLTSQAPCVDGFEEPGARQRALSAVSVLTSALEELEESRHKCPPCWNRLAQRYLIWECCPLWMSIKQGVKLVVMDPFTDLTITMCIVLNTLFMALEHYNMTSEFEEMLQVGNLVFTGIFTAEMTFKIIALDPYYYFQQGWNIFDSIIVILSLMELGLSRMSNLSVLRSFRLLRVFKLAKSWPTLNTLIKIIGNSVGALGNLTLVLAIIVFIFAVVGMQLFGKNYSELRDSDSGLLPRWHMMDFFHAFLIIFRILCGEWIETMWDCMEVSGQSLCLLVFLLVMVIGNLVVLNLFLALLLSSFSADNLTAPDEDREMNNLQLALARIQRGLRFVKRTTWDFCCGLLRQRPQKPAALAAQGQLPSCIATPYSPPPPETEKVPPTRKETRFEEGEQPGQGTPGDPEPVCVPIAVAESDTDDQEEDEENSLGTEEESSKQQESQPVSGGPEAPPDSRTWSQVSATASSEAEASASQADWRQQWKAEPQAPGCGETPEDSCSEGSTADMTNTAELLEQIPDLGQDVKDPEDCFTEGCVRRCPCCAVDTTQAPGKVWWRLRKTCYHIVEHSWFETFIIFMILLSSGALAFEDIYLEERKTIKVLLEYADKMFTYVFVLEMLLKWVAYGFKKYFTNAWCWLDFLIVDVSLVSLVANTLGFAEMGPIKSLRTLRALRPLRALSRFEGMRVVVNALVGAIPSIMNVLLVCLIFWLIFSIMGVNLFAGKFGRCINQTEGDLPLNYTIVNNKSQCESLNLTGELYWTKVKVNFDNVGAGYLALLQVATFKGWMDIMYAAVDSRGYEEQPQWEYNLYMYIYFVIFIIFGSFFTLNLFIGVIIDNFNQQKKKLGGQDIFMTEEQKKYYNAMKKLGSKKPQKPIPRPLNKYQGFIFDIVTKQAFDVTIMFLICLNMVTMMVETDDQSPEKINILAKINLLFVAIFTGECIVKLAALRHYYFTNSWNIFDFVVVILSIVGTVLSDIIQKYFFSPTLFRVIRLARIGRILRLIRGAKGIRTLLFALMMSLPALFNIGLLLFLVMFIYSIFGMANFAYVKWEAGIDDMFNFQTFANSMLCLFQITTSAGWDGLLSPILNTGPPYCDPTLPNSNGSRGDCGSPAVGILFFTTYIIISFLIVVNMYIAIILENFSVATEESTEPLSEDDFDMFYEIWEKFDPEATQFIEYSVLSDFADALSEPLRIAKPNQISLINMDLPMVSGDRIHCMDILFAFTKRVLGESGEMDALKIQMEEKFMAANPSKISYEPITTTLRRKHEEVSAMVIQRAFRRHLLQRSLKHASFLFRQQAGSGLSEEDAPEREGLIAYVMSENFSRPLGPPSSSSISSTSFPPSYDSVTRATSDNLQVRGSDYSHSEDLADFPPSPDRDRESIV
Sequence of hNav1.4 (P35499 whole entry): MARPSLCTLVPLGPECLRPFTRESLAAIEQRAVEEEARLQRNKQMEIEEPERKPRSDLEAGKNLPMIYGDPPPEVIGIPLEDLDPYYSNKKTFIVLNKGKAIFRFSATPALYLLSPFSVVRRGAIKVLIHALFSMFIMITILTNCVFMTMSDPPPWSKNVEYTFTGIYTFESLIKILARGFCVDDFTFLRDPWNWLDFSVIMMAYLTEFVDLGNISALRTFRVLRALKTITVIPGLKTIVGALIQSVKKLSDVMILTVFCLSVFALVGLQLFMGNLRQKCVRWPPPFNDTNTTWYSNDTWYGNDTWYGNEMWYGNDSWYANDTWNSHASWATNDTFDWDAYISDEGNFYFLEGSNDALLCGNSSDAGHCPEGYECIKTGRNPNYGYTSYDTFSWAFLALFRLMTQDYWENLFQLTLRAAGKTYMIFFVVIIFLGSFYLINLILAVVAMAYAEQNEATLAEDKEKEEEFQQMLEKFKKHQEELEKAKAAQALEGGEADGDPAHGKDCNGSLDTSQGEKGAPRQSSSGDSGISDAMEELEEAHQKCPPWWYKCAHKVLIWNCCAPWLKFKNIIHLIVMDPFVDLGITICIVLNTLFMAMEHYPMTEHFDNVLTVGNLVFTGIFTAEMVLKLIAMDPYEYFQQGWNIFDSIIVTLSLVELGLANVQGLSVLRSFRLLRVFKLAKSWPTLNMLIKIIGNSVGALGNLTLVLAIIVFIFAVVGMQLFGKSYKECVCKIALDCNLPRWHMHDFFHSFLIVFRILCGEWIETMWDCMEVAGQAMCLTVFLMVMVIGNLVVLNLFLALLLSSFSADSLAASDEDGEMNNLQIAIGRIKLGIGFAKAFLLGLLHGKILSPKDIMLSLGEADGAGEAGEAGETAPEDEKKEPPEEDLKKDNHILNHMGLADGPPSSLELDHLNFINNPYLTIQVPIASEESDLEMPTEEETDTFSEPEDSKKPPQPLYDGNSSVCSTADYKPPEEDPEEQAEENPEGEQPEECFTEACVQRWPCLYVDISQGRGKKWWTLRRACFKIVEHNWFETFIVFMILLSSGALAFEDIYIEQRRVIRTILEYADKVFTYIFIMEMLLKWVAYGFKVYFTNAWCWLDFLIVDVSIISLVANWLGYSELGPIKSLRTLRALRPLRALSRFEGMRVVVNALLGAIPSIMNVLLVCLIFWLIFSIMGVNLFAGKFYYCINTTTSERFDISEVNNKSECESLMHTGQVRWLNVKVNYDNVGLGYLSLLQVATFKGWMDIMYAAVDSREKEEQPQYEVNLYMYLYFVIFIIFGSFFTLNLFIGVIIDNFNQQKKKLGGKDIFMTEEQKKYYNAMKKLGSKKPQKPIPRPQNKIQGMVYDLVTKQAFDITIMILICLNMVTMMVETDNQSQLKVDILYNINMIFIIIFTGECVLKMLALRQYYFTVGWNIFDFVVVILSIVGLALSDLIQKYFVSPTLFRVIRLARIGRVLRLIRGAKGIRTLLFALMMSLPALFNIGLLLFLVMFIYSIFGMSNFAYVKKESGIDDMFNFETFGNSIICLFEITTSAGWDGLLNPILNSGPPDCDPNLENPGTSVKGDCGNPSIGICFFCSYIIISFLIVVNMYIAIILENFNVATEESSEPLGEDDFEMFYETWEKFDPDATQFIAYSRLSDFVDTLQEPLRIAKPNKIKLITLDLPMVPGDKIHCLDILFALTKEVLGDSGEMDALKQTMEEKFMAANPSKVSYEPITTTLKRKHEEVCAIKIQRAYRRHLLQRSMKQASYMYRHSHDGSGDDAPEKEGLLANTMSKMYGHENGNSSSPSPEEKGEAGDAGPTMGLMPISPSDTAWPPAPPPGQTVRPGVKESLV

SMILES	IC50 (hNav1.7)	IC50 (hNav1.5)	IC50 (hNav1.4)	Nav1.4/Nav1.7 (hNav1.4)	IC50 (hNav1.3)
CC[C@H](C)[C@H](NC(=O)[C@@H](NC(=O)[C@H](CCCCN)NC(=O)[C@H](CCCNC(=N)N)NC(=O)[C@@H]1CSSC[C@@H]2NC(=O)[C@H](C)NC(=O)[C@H](CCCNC(=N)N)NC(=O)[C@H](CCCCN)NC(=O)[C@H](CO)NC(=O)[C@H](CC(=O)O)NC(=O)[C@@H]3CSSC[C@H](NC(=O)[C@H](CCC(=O)O)NC(=O)[C@H](CC(C)C)NC(=O)CNC(=O)[C@H](CCC(=O)O)NC(=O)[C@H](CSSC[C@H](NC(=O)[C@@H](N)Cc4cn(CCCOCCOCCOCCOCCOCCOCCOCCOCCOCCOCCN)nn4)C(=O)N[C@@H](CCC(N)=O)C(=O)N[C@@H](CCCCN)C(=O)N[C@@H](Cc4c[nH]c5ccccc45)C(=O)N[C@@H](CCSC)C(=O)N[C@@H](Cc4c[nH]c5ccccc45)C(=O)N[C@@H]([C@@H](C)O)C(=O)N3)NC2=O)C(=O)N[C@@H](CCCCN)C(=O)N[C@@H](CC(C)C)C(=O)N[C@@H](Cc2c[nH]c3ccccc23)C(=O)N1)[C@@H](C)CC)C(N)=O [compound 165]	0.18 µM	15.1 µM	> 5 µM	28	> 5 µM
CC[C@H](C)[C@H](NC(=O)[C@@H](NC(=O)[C@H](CCCCN)NC(=O)[C@H](CCCNC(=N)N)NC(=O)[C@@H]1CSSC[C@@H]2NC(=O)[C@H](C)NC(=O)[C@H](CCCNC(=N)N)NC(=O)[C@H](CCCCN)NC(=O)[C@H](CO)NC(=O)[C@H](CC(=O)O)NC(=O)[C@@H]3CSSC[C@H](NC(=O)[C@H](CCC(=O)O)NC(=O)[C@H](CC(C)C)NC(=O)CNC(=O)[C@H](Cc4cn(CCCOCCOCCOCCOCCOCCOCCOCCOCCOCCOCCN)nn4)NC(=O)[C@H](CSSC[C@H](NC(=O)[C@@H](N)Cc4ccc(O)cc4)C(=O)N[C@@H](CCC(N)=O)C(=O)N[C@@H](CCCCN)C(=O)N[C@@H](Cc4c[nH]c5ccccc45)C(=O)N[C@@H](CCSC)C(=O)N[C@@H](Cc4c[nH]c5ccccc45)C(=O)N[C@@H]([C@@H](C)O)C(=O)N3)NC2=O)C(=O)N[C@@H](CCCCN)C(=O)N[C@@H](CC(C)C)C(=O)N[C@@H](Cc2c[nH]c3ccccc23)C(=O)N1)[C@@H](C)CC)C(N)=O [compound 178]	0.18 µM	15.1 µM	> 5 µM	28	> 5 µM
CC[C@H](C)[C@H](NC(=O)[C@@H](NC(=O)[C@H](CCCCN)NC(=O)[C@H](CCCNC(=N)N)NC(=O)[C@@H]1CSSC[C@@H]2NC(=O)[C@H](C)NC(=O)[C@H](CCCNC(=N)N)NC(=O)[C@H](CCCCN)NC(=O)[C@H](CO)NC(=O)[C@H](CC(=O)O)NC(=O)[C@@H]3CSSC[C@H](NC(=O)[C@H](CCC(=O)O)NC(=O)[C@H](CC(C)C)NC(=O)CNC(=O)[C@H](CCC(=O)O)NC(=O)[C@H](CSSC[C@H](NC(=O)[C@@H](N)Cc4ccc(O)cc4)C(=O)N[C@@H](CCC(N)=O)C(=O)N[C@@H](CCCCN)C(=O)N[C@@H](Cc4c[nH]c5ccccc45)C(=O)N[C@@H](CCSC)C(=O)N[C@@H](Cc4c[nH]c5ccccc45)C(=O)N[C@@H]([C@@H](C)O)C(=O)N3)NC2=O)C(=O)N[C@@H](CCCCN)C(=O)N[C@@H](Cc2cn(CCCOCCOCCOCCOCCOCCOCCOCCOCCOCCOCCN)nn2)C(=O)N[C@@H](Cc2c[nH]c3ccccc23)C(=O)N1)[C@@H](C)CC)C(N)=O [compound 183]	≥ 5 µM	19.2 µM	> 5 µM	1	> 5 µM
CC[C@H](C)[C@H](NC(=O)[C@H](Cc1cn(CCCOCCOCCOCCOCCOCCOCCOCCOCCOCCOCCN)nn1)NC(=O)[C@H](CCCCN)NC(=O)[C@H](CCCNC(=N)N)NC(=O)[C@@H]1CSSC[C@@H]2NC(=O)[C@H](C)NC(=O)[C@H](CCCNC(=N)N)NC(=O)[C@H](CCCCN)NC(=O)[C@H](CO)NC(=O)[C@H](CC(=O)O)NC(=O)[C@@H]3CSSC[C@H](NC(=O)[C@H](CCC(=O)O)NC(=O)[C@H](CC(C)C)NC(=O)CNC(=O)[C@H](CCC(=O)O)NC(=O)[C@H](CSSC[C@H](NC(=O)[C@@H](N)Cc4ccc(O)cc4)C(=O)N[C@@H](CCC(N)=O)C(=O)N[C@@H](CCCCN)C(=O)N[C@@H](Cc4c[nH]c5ccccc45)C(=O)N[C@@H](CCSC)C(=O)N[C@@H](Cc4c[nH]c5ccccc45)C(=O)N[C@@H]([C@@H](C)O)C(=O)N3)NC2=O)C(=O)N[C@@H](CCCCN)C(=O)N[C@@H](CC(C)C)C(=O)N[C@@H](Cc2c[nH]c3ccccc23)C(=O)N1)C(N)=O [compound 187]	1.77 µM	15.4 µM	> 5 µM	3	> 5 µM
CC[C@H](C)[C@H](NC(=O)[C@H](Cc1ccc(O)cc1)NC(=O)[C@H](CCCCN)NC(=O)[C@H](CCCNC(=N)N)NC(=O)[C@@H]1CSSC[C@@H]2NC(=O)[C@H](C)NC(=O)[C@H](CCCNC(=N)N)NC(=O)[C@H](CCCCN)NC(=O)[C@H](CO)NC(=O)[C@H](CC(=O)O)NC(=O)[C@@H]3CSSC[C@H](NC(=O)[C@H](CCC(=O)O)NC(=O)[C@H](CC(C)C)NC(=O)CNC(=O)[C@H](CCC(=O)O)NC(=O)[C@H](CSSC[C@H](NC(=O)[C@@H](N)Cc4ccc(O)cc4)C(=O)N[C@@H](CCC(N)=O)C(=O)N[C@@H](CCCCN)C(=O)N[C@@H](Cc4ccc(O)cc4)C(=O)N[C@@H](CCSC)C(=O)N[C@@H](Cc4c[nH]c5ccccc45)C(=O)N[C@@H]([C@@H](C)O)C(=O)N3)NC2=O)C(=O)N[C@@H](CCCCN)C(=O)N[C@@H](CC(C)C)C(=O)N[C@@H](Cc2c[nH]c3ccccc23)C(=O)N1)C(N)=O [compound 194]	0.91 µM and 2.5 µM	> 5 µM	> 5 µM	–	> 5 µM
CC[C@H](C)[C@H](NC(=O)[C@H](Cc1ccc(O)cc1)NC(=O)[C@H](CCCCN)NC(=O)[C@H](CCCNC(=N)N)NC(=O)[C@@H]1CSSC[C@@H]2NC(=O)[C@H](C)NC(=O)[C@H](CCCNC(=N)N)NC(=O)[C@H](CCCCN)NC(=O)[C@H](CO)NC(=O)[C@H](CC(=O)O)NC(=O)[C@@H]3CSSC[C@H](NC(=O)[C@H](CCC(=O)O)NC(=O)[C@H](CC(C)C)NC(=O)CNC(=O)[C@H](CCC(=O)O)NC(=O)[C@H](CSSC[C@H](NC(=O)[C@@H](N)Cc4ccc(O)cc4)C(=O)N[C@@H](CCC(N)=O)C(=O)N[C@@H](CCCCN)C(=O)N[C@@H](C(C)C)C(=O)N[C@@H](CCSC)C(=O)N[C@@H](Cc4c[nH]c5ccccc45)C(=O)N[C@@H]([C@@H](C)O)C(=O)N3)NC2=O)C(=O)N[C@@H](CCCCN)C(=O)N[C@@H](CC(C)C)C(=O)N[C@@H](Cc2c[nH]c3ccccc23)C(=O)N1)C(N)=O [compound 195]	3.8 µM	> 5 µM	> 5 µM	–	> 5 µM
CC[C@H](C)[C@H](NC(=O)[C@H](Cc1ccc(O)cc1)NC(=O)[C@H](CCCCN)NC(=O)[C@H](CCCNC(=N)N)NC(=O)[C@@H]1CSSC[C@@H]2NC(=O)[C@H](C)NC(=O)[C@H](CCCNC(=N)N)NC(=O)[C@H](CCCCN)NC(=O)[C@H](CO)NC(=O)[C@H](CC(=O)O)NC(=O)[C@@H]3CSSC[C@H](NC(=O)[C@H](CCC(=O)O)NC(=O)[C@H](CC(C)C)NC(=O)CNC(=O)[C@H](CCC(=O)O)NC(=O)[C@H](CSSC[C@H](NC(=O)[C@@H](N)Cc4ccc(O)cc4)C(=O)N[C@@H](CCC(N)=O)C(=O)N[C@@H](CCCCN)C(=O)N[C@@H](CC(C)C)C(=O)N[C@@H](CCSC)C(=O)N[C@@H](Cc4c[nH]c5ccccc45)C(=O)N[C@@H]([C@@H](C)O)C(=O)N3)NC2=O)C(=O)N[C@@H](CCCCN)C(=O)N[C@@H](CC(C)C)C(=O)N[C@@H](Cc2c[nH]c3ccccc23)C(=O)N1)C(N)=O [compound 196]	> 5 µM	> 5 µM	> 5 µM	–	> 5 µM
CCC[C@@H]1NC(=O)[C@H](CCCCN)NC(=O)[C@H](CCC(N)=O)NC(=O)[C@@H](NC(=O)[C@@H](N)Cc2ccc(O)cc2)CSSC[C@@H]2NC(=O)[C@@H]3CSSC[C@@H](C(=O)N[C@@H](CCCNC(=N)N)C(=O)N[C@@H](CCCCN)C(=O)N[C@@H](Cc4ccc(O)cc4)C(=O)N[C@H](C(N)=O)[C@@H](C)CC)NC(=O)[C@H](Cc4c[nH]c5ccccc45)NC(=O)[C@H](CC(C)C)NC(=O)[C@H](CCCCN)NC(=O)[C@H](CSSC[C@H](NC(=O)[C@H]([C@@H](C)O)NC(=O)[C@H](Cc4c[nH]c5ccccc45)NC(=O)[C@H](CCSC)NC1=O)C(=O)N[C@@H](CC(=O)O)C(=O)N[C@@H](CO)C(=O)N[C@@H](CCCCN)C(=O)N[C@@H](CCCNC(=N)N)C(=O)N[C@@H](C)C(=O)N3)NC(=O)[C@H](CCC(=O)O)NC(=O)[C@H](CC(C)C)NC(=O)CNC(=O)[C@H](CCC(=O)O)NC2=O [compound 198]	3.3 µM	> 5 µM	> 5 µM	–	> 5 µM
CC[C@H](C)[C@H](NC(=O)[C@H](Cc1ccc(O)cc1)NC(=O)[C@H](CCCCN)NC(=O)[C@H](CCCNC(=N)N)NC(=O)[C@@H]1CSSC[C@@H]2NC(=O)[C@H](C)NC(=O)[C@H](CCCNC(=N)N)NC(=O)[C@H](CCCCN)NC(=O)[C@H](CO)NC(=O)[C@H](CC(=O)O)NC(=O)[C@@H]3CSSC[C@H](NC(=O)[C@H](CCC(=O)O)NC(=O)[C@H](CC(C)C)NC(=O)CNC(=O)[C@H](CCC(=O)O)NC(=O)[C@H](CSSC[C@H](NC(=O)[C@@H](N)Cc4ccc(O)cc4)C(=O)N[C@@H](CCC(N)=O)C(=O)N[C@@H](CCCCN)C(=O)N[C@@H](CCCNC(N)=O)C(=O)N[C@@H](CCSC)C(=O)N[C@@H](Cc4c[nH]c5ccccc45)C(=O)N[C@@H]([C@@H](C)O)C(=O)N3)NC2=O)C(=O)N[C@@H](CCCCN)C(=O)N[C@@H](CC(C)C)C(=O)N[C@@H](Cc2c[nH]c3ccccc23)C(=O)N1)C(N)=O [compound 199]	> 5 µM	> 5 µM	> 5 µM	–	> 5 µM
